# Results as given in patent publication US9346818B2 (priority 2012, dated 2016).
# Entries after “also recorded” stand apart in the source; their conditions may differ.
# Columns and labels:
# acetylcholinesterase = acetylcholinesterase (Homo sapiens (Human), UniProt P22303); assay: biochemical; assay type: biochemical
# [1] = tested on: learning and memory disorder induced by intracerebroventricular injection of Aβ1-42; assay: Morris water maze test, rats with intracerebroventricular injection of Aβ1-42; assay type: in vivo; settings: for The period of reaching the platform for the first time (latent period) / times of crossing platform: 8 days
# Experimental: The model of learning and memory disorder induced after intracerebroventricular injection of Aβ1-42 is the most common animal model for evaluating whether a compound has the effect of improving the learning and memory. […] Morris water maze test and the model of learning and memory disorder induced by intracerebroventricular injection of Aβ1-42 were employed in the present research, and the improvement effects of I-33 on learning and memory of rats at various concentration (0.7 mg/Kg, 3.5 mg/Kg, and 7 mg/Kg) were evaluated.
# SD, male (220±20 g), the animals were fed in light: dark cycle (12 h/12 h) in a cleaning level of animal room, ad lib. The tests were performed after 3 days acclimation in the animal room. Aβ1-42 was formulated to 2 μg/μl according to the instruction of specification.
# (1) Normal group: intracerebroventricular injection of physiological saline
# (2) Model group with intracerebroventricular injection of Aβ1-42: intracerebroventricular injection of Aβ1-42
# (4) I-33 (low concentration group): I-33 (0.7 mg/Kg)+intracerebroventricular injection of Aβ1-42
# (5) I-33 (medium concentration group): I-33 (3.5 mg/Kg)+intracerebroventricular injection of Aβ1-42
# (6) I-33 (high concentration group): I-33 (7 mg/Kg)+intracerebroventricular injection of Aβ1-42
# Each rat in normal control group received intracerebroventricular injection of 5 μl of physiological saline, each rat in the other groups received intracerebroventricular injection of 5 μl of Aβ1-42. After the operation, the rats received the following tests after 1 week recovery period. […] The drugs were administered for 8 days, the training for water maze test was started on the 5th day, and the water maze test was formally started on the 9th day.
# in vivo = settings: mouse, in vivo
# Experimental: (§1) Firstly, preliminary tests were performed, in order to determine the concentration of each compound, with just 0% mortality or just 100% mortality, before starting the formal tests. The animals were divided into groups by weight, various dosages of drugs were administered between 0%-100%. Dosage volume: 10 ml/kg. Dosage manner: intravenous injection or intragastric administration.
# (§2) The animals were divided into 6 groups, with 5 animals per group.
# (§3) The animals were divided into 6 groups, with 5 animals per group. […] Each animal was fasted 12 h before administration.
# (§4) The animals were divided into 5 groups, with 5 animals per group.
# (§5) The animals were divided into 5 groups, with 5 animals per group. […] Each animal was fasted 12 h before administration.
# (§6) The toxic reaction and death of the animals after administration were observed, and mortality was counted. The results were analyzed with LD50 data processing software.
# white mice = assay: in vivo; settings: for Mortality (%) / Number of death: 5 animals
# Experimental: as §1, §2, §3, §4, §5, §6
# [2] = Experimental: 0.3 ml of whole blood was collected at corresponding time point, anticoagulating with heparin, centrifuged at 4000 rpm for 10 min, the plasma was separated, 50 μL the plasma sample of rats was collected, 100 μL acetonitrile (containing 0.1% formic acid) was added, mixed under vortex for 1 min, centrifuged (12000 rpm) for 10 min, the supernatant was collected, analyzed with liquid chromatography-mass spectrometer, the area of peaks were recorded and used for the calculation of blood drug concentration, and the drug-time curve was plotted.
# [3] = Aβ1-42 rats, DPH 3 mg/Kg, I-33 all dosages tested
# [4] = high concentration 7 mg/Kg intragastric, Aβ1-42 rats
# [5] = low concentration 0.7 mg/Kg intragastric, Aβ1-42 rats
# [6] = medium concentration 3.5 mg/Kg intragastric, Aβ1-42 rats
# [7] = Intragastric administration 215.23 mg/kg
# [8] = Intragastric administration 239.15 mg/kg
# [9] = Intragastric administration 265.72 mg/kg
# [10] = Intragastric administration 295.25 mg/kg
# [11] = Intragastric administration 450.00 mg/kg
# [12] = Intragastric administration 500.00 mg/kg
# [13] = Intravenous injection 16.18 mg/kg
# [14] = Intravenous injection 20.48 mg/kg
# [15] = Intravenous injection 25.60 mg/kg
# [16] = Intravenous injection 32.00 mg/kg
# [17] = Intravenous injection 40.00 mg/kg
# [18] = Intravenous injection 50.00 mg/kg
# Chain of acetylcholinesterase (P22303 32-614, species assumed): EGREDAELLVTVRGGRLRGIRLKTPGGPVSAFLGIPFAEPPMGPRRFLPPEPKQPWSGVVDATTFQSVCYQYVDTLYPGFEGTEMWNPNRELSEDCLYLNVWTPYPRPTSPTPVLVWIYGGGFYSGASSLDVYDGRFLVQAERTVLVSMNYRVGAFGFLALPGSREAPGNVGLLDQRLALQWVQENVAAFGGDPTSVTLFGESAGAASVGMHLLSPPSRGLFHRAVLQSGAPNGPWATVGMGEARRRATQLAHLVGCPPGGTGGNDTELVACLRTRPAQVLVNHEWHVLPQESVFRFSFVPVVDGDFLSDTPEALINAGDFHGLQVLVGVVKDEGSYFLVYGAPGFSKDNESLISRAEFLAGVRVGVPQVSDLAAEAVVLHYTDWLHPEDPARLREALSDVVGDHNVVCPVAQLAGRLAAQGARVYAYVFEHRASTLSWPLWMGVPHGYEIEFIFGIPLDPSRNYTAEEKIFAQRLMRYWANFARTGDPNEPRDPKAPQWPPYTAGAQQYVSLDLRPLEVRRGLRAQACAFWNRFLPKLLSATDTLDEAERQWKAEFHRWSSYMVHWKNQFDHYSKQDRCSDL
smiles,measurement,setting,value
"Cl.O=C1c2cc3c(cc2C2(CC2)N1CCC1CCN(Cc2ccccn2)CC1)OCO3 [Compound I-33, 6-[2-[1-(2-pyridylmethyl)-4-piperidyl]ethyl]spiro[[1,3]dioxolo[4,5-f]isoindole-7,1′-cyclopropane]-5-one hydrochloride]",potency on acetylcholinesterase compared with positive control drug donepezil hydrochloride,"acetylcholinesterase; in vitro, enzymology level",even lower
same,IC50,"acetylcholinesterase; read-out: IC50 (nM), inhibition activity on acetylcholinesterase",950 nM
same,effect on period required for reaching the platform for the first time (latent period),[1]; [3],significantly shorten the period required for reaching the platform for the first time
same,effect on times of crossing the platform,[1]; [3],significantly increases the times of crossing the platform
same,improvement of learning and memory disorder of rats induced by Aβ1-42,"[1]; Morris water maze, 0.7, 3.5 and 7 mg/Kg, hydrochloride",significantly improve the learning and memory disorder of rats induced by intracerebroventricular injection of Aβ1-42; also recorded: stronger effects of improving learning and memory
same,The period of reaching the platform for the first time (latent period),[1]; [4],14.87 ± 3.62
same,times of crossing platform,[1]; [4],3.20 ± 0.36
same,The period of reaching the platform for the first time (latent period),[1]; [5],21.37 ± 3.64
same,times of crossing platform,[1]; [5],3.00 ± 0.33
same,The period of reaching the platform for the first time (latent period),[1]; [6],18.10 ± 6.54
same,times of crossing platform,[1]; [6],3.40 ± 0.43
same,LD50,in vivo; iv,31.3 mg/kg
same,LD50,in vivo; po,303 mg/kg
same,Mortality (%),white mice; [7],0%
same,Number of death,white mice; [7],0
same,Mortality (%),white mice; [8],0%
same,Number of death,white mice; [8],1
same,Mortality (%),white mice; [9],40%
same,Number of death,white mice; [9],2
same,Mortality (%),white mice; [10],60%
same,Number of death,white mice; [10],3
same,Mortality (%),white mice; [11],80%
same,Number of death,white mice; [11],4
same,Mortality (%),white mice; [12],100%
same,Number of death,white mice; [12],5
same,Mortality (%),white mice; [13],0%
same,Number of death,white mice; [13],0
same,Mortality (%),white mice; [14],0%
same,Number of death,white mice; [14],0
same,Mortality (%),white mice; [15],20%
same,Number of death,white mice; [15],1
same,Mortality (%),white mice; [16],60%
same,Number of death,white mice; [16],3
same,Mortality (%),white mice; [17],80%
same,Number of death,white mice; [17],4
same,Mortality (%),white mice; [18],100%
same,Number of death,white mice; [18],5
same,"median lethal dose by oral and intravenous administration, times of those of donepezil hydrochloride",white mice; oral and intravenous,8-10 times
same,toxicity compared with donepezil hydrochloride,"white mice; preliminary acute toxicity tests, hydrochloride",lower toxicity than donepezil hydrochloride; also recorded: much lower toxicity
same,t1/2z,"[2]; rat plasma, oral 5 mg/kg",2.085 ± 0.392
same,absorption degree (AUC) and peak concentration (Cmax) compared with donepezil hydrochloride,"[2]; rat, oral, same dosage 5 mg/kg",significantly higher than those of donepezil hydrochloride
